Source: patent publication US5834279A (priority 1997, dated 1998)
Where two headings read alike, the source gives them in different places.

Experiments:
M. smegmatis = details: 200 μg/ml hydroxyurea; cited from earlier work
[1] = target: Salmonella ribonucleotide reductase (Salmonella typhimurium, UniProt P17424); details: cited from earlier work
[2] = target: T1, M. tuberculosis ribonucleotide reductase (Mycobacterium tuberculosis, UniProt P9WH75); experiment: biochemical; type: biochemical; details: for Maximal stimulated ribonucleotide reduction (Example 2): Example 2, written in present tense; for Maximal stimulated CDP reduction: equimolar R1 and R2, DTT as reductant
Target sequence in this assay (P9WH75 3-725): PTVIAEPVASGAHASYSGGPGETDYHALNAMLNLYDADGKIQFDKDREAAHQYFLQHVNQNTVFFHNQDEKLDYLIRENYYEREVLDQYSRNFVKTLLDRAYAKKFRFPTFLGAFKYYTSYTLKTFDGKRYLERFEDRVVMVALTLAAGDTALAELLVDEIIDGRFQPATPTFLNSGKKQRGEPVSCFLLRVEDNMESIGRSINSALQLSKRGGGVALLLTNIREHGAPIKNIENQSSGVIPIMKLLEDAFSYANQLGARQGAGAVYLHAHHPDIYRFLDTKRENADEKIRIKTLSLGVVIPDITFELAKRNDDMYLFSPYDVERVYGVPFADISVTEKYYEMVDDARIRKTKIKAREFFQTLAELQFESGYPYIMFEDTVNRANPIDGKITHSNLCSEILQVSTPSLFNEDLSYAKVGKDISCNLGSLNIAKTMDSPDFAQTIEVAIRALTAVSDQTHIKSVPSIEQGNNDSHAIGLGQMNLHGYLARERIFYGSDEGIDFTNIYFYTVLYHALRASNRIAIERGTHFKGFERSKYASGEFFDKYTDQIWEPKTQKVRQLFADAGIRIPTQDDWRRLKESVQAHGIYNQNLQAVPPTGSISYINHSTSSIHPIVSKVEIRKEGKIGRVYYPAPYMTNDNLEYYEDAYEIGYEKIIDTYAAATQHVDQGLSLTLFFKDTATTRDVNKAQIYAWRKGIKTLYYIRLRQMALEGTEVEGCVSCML

[3] = target: T2, calf thymus ribonucleotide reductase (Bos taurus, UniProt E1BI58); details: cited from earlier work
T2 construct: slightly higher than that found for calf thymus; host or cells: calf thymus

[4] = target: M. tuberculosis topoisomerase I (Mycobacterium tuberculosis, UniProt P9WG49); type: biochemical; details: 150 ng enzyme, 1.0 mM MgCl2
[5] = target: M. tuberculosis ribonucleotide reductase R1 (Mycobacterium tuberculosis, UniProt P9WH75); type: binding; details: 5 mM ATP
[6] = target: T1, M. tuberculosis ribonucleotide reductase; type: biochemical
Target sequence in this assay (P9WH75 whole entry, looked up): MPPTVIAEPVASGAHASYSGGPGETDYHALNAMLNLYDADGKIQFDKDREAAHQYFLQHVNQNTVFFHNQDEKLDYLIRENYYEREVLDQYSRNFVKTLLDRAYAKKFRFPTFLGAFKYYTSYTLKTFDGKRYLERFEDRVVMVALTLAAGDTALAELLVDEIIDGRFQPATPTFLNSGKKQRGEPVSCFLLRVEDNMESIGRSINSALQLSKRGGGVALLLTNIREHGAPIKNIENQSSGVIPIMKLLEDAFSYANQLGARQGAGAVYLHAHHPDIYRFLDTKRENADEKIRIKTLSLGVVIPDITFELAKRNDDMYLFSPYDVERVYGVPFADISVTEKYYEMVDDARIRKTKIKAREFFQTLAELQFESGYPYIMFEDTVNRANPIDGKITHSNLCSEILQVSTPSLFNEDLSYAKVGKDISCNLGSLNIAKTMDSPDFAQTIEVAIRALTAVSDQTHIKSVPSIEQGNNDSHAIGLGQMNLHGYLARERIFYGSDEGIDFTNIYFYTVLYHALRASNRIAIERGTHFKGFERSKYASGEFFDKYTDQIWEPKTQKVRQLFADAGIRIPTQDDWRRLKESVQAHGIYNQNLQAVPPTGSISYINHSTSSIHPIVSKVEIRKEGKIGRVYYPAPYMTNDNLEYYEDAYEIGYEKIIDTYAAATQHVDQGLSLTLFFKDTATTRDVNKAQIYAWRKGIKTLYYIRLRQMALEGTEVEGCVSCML

[7] = target: T3, nrdE/nrdF ribonucleotide reductase (Salmonella typhimurium, UniProt Q08698); details: cited from earlier work
T3 construct: host or cells: recombinant expression plasmid system (as reported)

[8] = target: T4, mammalian enzyme (ribonucleotide reductase) (Homo sapiens, UniProt P23921); details: cited from earlier work
T4 sequence (P23921 1-792): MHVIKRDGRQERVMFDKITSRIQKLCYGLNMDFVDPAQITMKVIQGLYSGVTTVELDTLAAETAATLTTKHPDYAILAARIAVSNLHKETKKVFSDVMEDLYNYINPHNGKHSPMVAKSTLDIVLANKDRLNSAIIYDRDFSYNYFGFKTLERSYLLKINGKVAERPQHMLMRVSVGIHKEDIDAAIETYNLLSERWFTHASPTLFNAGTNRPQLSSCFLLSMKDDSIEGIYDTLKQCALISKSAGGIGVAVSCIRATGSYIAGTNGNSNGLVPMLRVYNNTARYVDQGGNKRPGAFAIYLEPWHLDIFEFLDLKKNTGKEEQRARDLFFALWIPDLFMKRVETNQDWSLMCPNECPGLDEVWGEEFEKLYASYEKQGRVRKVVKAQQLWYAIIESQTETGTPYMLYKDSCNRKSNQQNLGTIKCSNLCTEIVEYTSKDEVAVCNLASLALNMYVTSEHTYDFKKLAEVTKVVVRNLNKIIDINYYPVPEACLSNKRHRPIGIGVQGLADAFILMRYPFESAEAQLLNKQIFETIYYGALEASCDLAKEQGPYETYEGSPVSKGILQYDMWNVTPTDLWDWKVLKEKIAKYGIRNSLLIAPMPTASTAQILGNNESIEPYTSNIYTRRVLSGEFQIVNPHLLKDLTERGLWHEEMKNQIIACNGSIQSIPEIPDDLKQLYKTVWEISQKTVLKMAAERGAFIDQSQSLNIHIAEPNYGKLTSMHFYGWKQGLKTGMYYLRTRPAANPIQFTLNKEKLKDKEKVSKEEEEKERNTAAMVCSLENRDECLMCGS

[9] = target: nrdA/nrdB ribonucleotide reductase (Escherichia coli, UniProt P00452); details: negative effector at higher concentrations; cited from earlier work
[10] = 5 mg reconstituted RR (1:1 R1 to R2-2), 6 mM CDP, 2 mM ATP, 0.0-0.5 mM inhibitor, read-out: IC50, inhibition of CDP reduction activity by C-terminal R2 peptides

M. tuberculosis topoisomerase I, sequence (P9WG49 2-896, added parts left off): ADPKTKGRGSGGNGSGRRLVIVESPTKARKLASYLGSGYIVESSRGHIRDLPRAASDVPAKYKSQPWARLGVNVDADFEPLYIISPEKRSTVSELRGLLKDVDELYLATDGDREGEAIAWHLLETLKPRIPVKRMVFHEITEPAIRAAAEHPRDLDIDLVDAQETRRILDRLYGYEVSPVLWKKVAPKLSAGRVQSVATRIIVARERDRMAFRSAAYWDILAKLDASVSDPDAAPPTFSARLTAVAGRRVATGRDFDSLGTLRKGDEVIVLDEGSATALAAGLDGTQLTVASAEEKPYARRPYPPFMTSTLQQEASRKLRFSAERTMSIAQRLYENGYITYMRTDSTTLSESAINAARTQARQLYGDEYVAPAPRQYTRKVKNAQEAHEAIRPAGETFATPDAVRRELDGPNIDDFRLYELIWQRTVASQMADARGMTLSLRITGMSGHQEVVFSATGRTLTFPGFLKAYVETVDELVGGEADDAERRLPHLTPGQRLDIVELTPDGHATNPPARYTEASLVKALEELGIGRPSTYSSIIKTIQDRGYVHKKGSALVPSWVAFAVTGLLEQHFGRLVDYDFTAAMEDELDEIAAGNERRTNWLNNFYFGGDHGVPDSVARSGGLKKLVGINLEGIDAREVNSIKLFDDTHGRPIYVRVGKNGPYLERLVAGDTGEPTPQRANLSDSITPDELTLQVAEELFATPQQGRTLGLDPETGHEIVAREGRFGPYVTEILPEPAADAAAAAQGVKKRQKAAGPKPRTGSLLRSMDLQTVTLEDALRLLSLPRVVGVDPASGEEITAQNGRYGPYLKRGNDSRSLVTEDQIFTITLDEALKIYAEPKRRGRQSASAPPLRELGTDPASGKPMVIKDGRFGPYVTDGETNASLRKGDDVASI
M. tuberculosis ribonucleotide reductase R1, sequence (P9WH75 3-725 limits assumed): as the sequence (P9WH75 3-725) above
T3 sequence (P17424 whole entry): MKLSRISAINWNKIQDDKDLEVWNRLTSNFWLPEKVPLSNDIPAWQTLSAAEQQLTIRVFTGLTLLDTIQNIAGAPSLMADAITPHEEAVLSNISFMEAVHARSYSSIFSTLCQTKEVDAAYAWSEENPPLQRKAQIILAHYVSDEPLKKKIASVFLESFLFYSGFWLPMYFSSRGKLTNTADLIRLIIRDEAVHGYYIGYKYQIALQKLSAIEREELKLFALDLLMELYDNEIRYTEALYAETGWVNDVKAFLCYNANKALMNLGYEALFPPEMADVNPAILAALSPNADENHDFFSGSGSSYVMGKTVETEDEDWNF
T3 sequence (Q08698 whole entry): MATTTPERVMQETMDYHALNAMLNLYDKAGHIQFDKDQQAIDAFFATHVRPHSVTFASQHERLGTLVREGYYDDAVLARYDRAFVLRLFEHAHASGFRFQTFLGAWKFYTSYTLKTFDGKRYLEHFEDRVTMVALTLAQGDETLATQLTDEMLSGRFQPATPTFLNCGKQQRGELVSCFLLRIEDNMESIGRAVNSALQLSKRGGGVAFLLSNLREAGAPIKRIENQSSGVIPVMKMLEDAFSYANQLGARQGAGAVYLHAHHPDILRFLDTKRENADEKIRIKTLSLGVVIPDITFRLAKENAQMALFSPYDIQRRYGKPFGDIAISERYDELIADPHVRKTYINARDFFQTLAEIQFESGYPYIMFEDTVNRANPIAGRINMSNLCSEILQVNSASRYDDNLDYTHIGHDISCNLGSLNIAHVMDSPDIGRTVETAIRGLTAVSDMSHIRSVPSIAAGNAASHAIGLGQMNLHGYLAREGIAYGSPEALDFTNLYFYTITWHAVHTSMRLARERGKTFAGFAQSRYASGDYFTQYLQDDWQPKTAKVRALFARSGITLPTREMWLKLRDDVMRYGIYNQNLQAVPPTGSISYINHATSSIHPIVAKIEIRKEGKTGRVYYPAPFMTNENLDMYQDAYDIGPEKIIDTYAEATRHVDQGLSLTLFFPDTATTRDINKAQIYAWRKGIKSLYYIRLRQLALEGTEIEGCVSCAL
Salmonella ribonucleotide reductase, sequence (P17424 whole entry): as the sequence (P17424 whole entry) above
T2 sequence (E1BI58 entry or part of it): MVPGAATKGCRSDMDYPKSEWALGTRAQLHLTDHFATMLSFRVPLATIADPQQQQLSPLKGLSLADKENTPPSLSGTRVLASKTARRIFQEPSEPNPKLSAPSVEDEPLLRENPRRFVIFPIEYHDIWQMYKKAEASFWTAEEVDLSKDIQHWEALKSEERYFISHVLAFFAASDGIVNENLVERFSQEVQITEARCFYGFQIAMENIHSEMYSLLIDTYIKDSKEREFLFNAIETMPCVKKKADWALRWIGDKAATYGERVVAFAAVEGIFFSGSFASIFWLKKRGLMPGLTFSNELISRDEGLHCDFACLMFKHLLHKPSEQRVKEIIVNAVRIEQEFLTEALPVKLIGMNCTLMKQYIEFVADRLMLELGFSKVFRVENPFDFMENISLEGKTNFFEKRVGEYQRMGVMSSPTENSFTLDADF

## NC(=O)NO [hydroxyurea]
M. smegmatis
  Growth of M. smegmatis: completely inhibited
[1]
  IC50: ~500 µM
[2]; read-out: IC50, inhibition of the activity of CDP reduction by hydroxyurea
  IC50: 2000 µM
[3]
  IC90: 1000 µM

## Nc1ncnc2c1ncn2[C@@H]1O[C@H](COP(=O)(O)OP(=O)(O)OP(=O)(O)O)[C@@H](O)[C@H]1O [ATP]
[4]; 0.4-1.6 mM ATP
  Effect of ATP on DNA relaxing activity: inhibited the reaction
[2]
  Concentration above which the effector inhibited the activity: higher than 2 mM
  Optimum concentration of activator for CDP reduction: 1 to 2 mM
  Maximal stimulated ribonucleotide reduction (Example 2): up to 45 pmoles deoxyribonucleotide in 20 min
  Maximal stimulated CDP reduction: up to 45 pmoles dCDP in 20 min
[5]
  Labeling of the 84,000 Da band by [alpha-32P]dATP: completely inhibited
[6]
  Effect of nucleotide effector on ribonucleotide reductase activity of native enzyme: stimulated

## Nc1ncnc2c1ncn2[C@H]1C[C@H](O)[C@@H](COP(=O)(O)OP(=O)(O)OP(=O)(O)O)O1 [dATP]
[7]
  Concentration up to which dATP is a positive allosteric activator, nrdE/nrdF system: up to 1 mM
[8]
  dATP concentration above which inhibition is seen in the mammalian system: greater than 0.1 mM
[9]
  Concentration up to which dATP activates, nrdA/nrdB system: up to 1 uM
[2]
  Maximal stimulated ribonucleotide reduction (Example 2): ≤ 13 pmoles deoxyribonucleotide in 20 min
  Maximal stimulated CDP reduction: ≤ 13 pmoles dCDP in 20 min
[2]; inhibition at higher concentrations
  Highest concentration at which the effector still stimulated reduction: ≤ 1 mM
[6]
  Effect of nucleotide effector on ribonucleotide reductase activity of native enzyme: inhibited

## Ac-TDTDWDF-OH [R2P7-1, Acetyl-TDTDWDF-OH]
[2]; [10]
  IC50: 100 µM

## NCCCCNCCCN [spermidine]
[4]; 4.0 mM spermidine
  DNA relaxing activity in the presence of spermidine: almost completely inhibited

## Ac-EDDDWDF-OH [R2P7-2, Acetyl-EDDDWDF-OH]
[2]; [10]
  IC50: 15 to 20 µM
